Measured values reported in patent publication US6638921B1, “Pyridoxal-5-phosphate derivatives as HIV integrase inhibitors” (Pharmacor Inc., priority 2002, dated 2003).
Structures can show the parent of a compound that is named as a salt. Where two headings read alike, the source gives them in different places.

Key:
[1] = target: HIV-1 integrase (Human immunodeficiency virus type 1 group M subtype B, UniProt P12497); assay: HIV-1 integrase inhibition assay in vitro (radiolabeled duplex substrate, U5 end of HIV LTR); type: biochemical
Protocol: For the purpose of Table 1, the HIV-1 integrase inhibition assay was carried out following a known procedure (Burke, Jr. T. R. et al., J. Med. Chem. 38, 4171-4178 (1995)). A suitable radiolabeled duplex substrate corresponding to the U5 end of the HIV LTR was used.

[2] = system: HIV-1 laboratory viral strain NL4.3; assay: Anti-viral assay in vitro (MTT, infected MT-4 cells); type: cell-based; details: reduce virus replication in cell culture by 50%, six days
Protocol: (§1) To evaluate the EC50 of our compounds, various drug concentrations are incubated with the infected cell for six days and then the metabolic activity of the cells is monitored by the MTT assay. (See A. J. Japour et al, Antimicrobial Agents and Chemotherapy, 37, 1095-1101, 1993 and R. Pauwels et al. Journal of Virological Methods, 20, 309-321, 1988).
(§2) We use the laboratory viral strain NL4.3 as wild type virus and the cell line used is MT-4 which is a T-cell line highly sensitive to HIV-1. We also use some WT clinical strains. To address the resistance issue we assay the inhibitors with NL4.3 mutants which are designed to be resistant to specific commercially available inhibitors. The following reagents were obtained through the AIDS Research and Reference Reagent Program, division of AIDS, NIAID, NIH: pNL4.3 from Dr. Malcolm Martin; MT-4 cell line from Dr. Douglas Richman. Wild type (WT) clinical strains were obtained from “Laboratoire de santé publique du Québec”.

[3] = system: MT-4 cell line; assay: Cytotoxicity assay in vitro (MTT, virus omitted); type: cell-based
Protocol: as §1, §2
The same MTT assay is used to evaluate the CCIC50 of our compounds except that the virus is omitted.

[4] = concentration of drug required to reduce the enzyme activity by 50%, read-out: IC50
[5] = IC50, concentration of drug required to reduce the enzyme activity by 50%
[6] = Human immunodeficiency virus 1, MT4, 144 h

Compound | IC50 [1, 4] [nM] | also measured
6-[4-(N-(2-E-Caprolactamyl)-N-isobutylsulfamoyl)phenylazo]-pyridoxal-5-phosphate Hydrochloride [Example 5] | 600 | EC50 ([2]; read-out: EC50): 17000 nM; CCIC50 [3]: >100 µM
Cc1nc(N=Nc2cccc(C(=O)O)c2C)c(COP(=O)(O)O)c(C=O)c1O [Example 1, 6-(3-Carboxy-2-methylphenylazo)-pyridoxal-5-phosphate] |  | IC50 [1, 5]: 1200 nM; EC50 [2, 6]: 2000 nM; CCIC50 ([3]; human, 6 days): >100 µM
Cc1nc(N=Nc2ccc(S(N)(=O)=O)cc2)c(COP(=O)(O)O)c(C=O)c1O [Example 2, 6-(4-Sulfamoylphenylazo)-pyridoxal-5-phosphate] |  | IC50 [1, 5]: 250 nM; EC50 [2, 6]: 5000 nM; CCIC50 ([3]; human, 6 days): >100 µM
Cc1nc(N=Nc2ccc(S(=O)(=O)NC34CC5CC(CC(C5)C3)C4)cc2)c(COP(=O)(O)O)c(C=O)c1O [Example 3, 6-[4-(N-(1-Adamantyl)sulfamoyl)phenylazo]-pyridoxal-5-phosphate Hydrochloride] |  | IC50 [1, 5]: 200 nM; EC50 [2, 6]: 19800 nM; CCIC50 ([3]; human, 6 days): 12 µM
Cc1nc(N=Nc2cccc(C(=O)NC34CC5CC(CC(C5)C3)C4)c2)c(COP(=O)(O)O)c(C=O)c1O [Example 4, 6-[3-(N-(1-Adamantyl)carbamoyl)phenylazo]-pyridoxal-5-phosphate Hydrochloride] |  | IC50 [1, 5]: 400 nM; EC50 [2, 6]: 50000 nM; CCIC50 ([3]; human, 6 days): 13 µM
Cc1nc(N=Nc2cccc(S(=O)(=O)N3CCCCC3)c2)c(COP(=O)(O)O)c(C=O)c1O [Example 6, 6-[3-(1-Piperidinesulfonyl)phenylazo]-pyridoxal-5-phosphate] | 4370 | 
Cc1nc(/N=N/c2cccc(C(=O)N3CCCCC3)c2)c(COP(=O)(O)O)c(C=O)c1O [Example 8, 6-[3-(1-Piperidinecarbonyl)phenylazo]-pyridoxal-5-phosphate] | 2800 | 
Cc1nc(N=Nc2ccc(S(=O)(=O)NC(C)(C)C)cc2)c(COP(=O)(O)O)c(C=O)c1O [Example 10, 6-[4-(tert-Butylsulfamoyl)phenylazo]-pyridoxal-5-phosphate] | 4250 | 
Cc1nc(N=Nc2ccc(C(=O)NC(C)(C)C)cc2)c(COP(=O)(O)O)c(C=O)c1O [Example 11, 6-[4-(tert-Butylcarbamoyl)phenylazo]-pyridoxal-5-phosphate] | 2730 | 
Cc1nc(N=Nc2cccc(S(=O)(=O)N3CCCC3)c2)c(COP(=O)(O)O)c(C=O)c1O [Example 12, 6-[3-(1-Pyrrolinesulfonyl)phenylazo]-pyridoxal-5-phosphate] | 2900 | 
Cc1nc(N=Nc2ccc(C(=O)NC3CCCCC3)cc2)c(COP(=O)(O)O)c(C=O)c1O [Example 14, 6-[4-(Cyclohexylcarbamoyl)phenylazo]-pyridoxal-5-phosphate] | 4360 | 
Cc1nc(N=Nc2ccc(S(=O)(=O)N3CCCC3)cc2)c(COP(=O)(O)O)c(C=O)c1O [Example 15, 6-[4-(1-Pyrrolinesulfonyl)phenylazo]-pyridoxal-5-phosphate] | 1700 | 
Cc1nc(N=Nc2cccc(S(=O)(=O)NCC(C)C)c2)c(COP(=O)(O)O)c(C=O)c1O [Example 16, 6-[3-(Isobutylsulfamoyl)phenylazo]-pyridoxal-5-phosphate] | 1900 | 
Cc1nc(N=Nc2ccc(S(=O)(=O)NCC(C)C)cc2)c(COP(=O)(O)O)c(C=O)c1O [Example 17, 6-[4-(Isobutylsulfamoyl)phenylazo]pyridoxal-5-phosphate] | 2450 | 
Cc1nc(N=Nc2ccc(S(=O)(=O)NC3CCCCC3)cc2)c(COP(=O)(O)O)c(C=O)c1O [Example 18, 6-[4-(Cyclohexylsulfamoyl)phenylazo]-pyridoxal-5-phosphate] | 2200 | 
CCCCNS(=O)(=O)c1cccc(N=Nc2nc(C)c(O)c(C=O)c2COP(=O)(O)O)c1 [Example 19, 6-[3-(Butylsulfamoyl)phenylazo]-pyridoxal-5-phosphate] | 2000 | 

Compound | IC50 [1, 4] [nM] | also measured
CNS(=O)(=O)c1ccc(N=Nc2nc(C)c(O)c(C=O)c2COP(=O)(O)O)cc1 [Example 20, 6-[4-(Methylsulfamoyl)phenylazo]-pyridoxal-5-phosphate] | 1200 | 
Cc1nc(N=Nc2cccc(S(=O)(=O)NCCO)c2)c(COP(=O)(O)O)c(C=O)c1O [Example 21, 6-[3-(2-Hydroxyethylsulfamoyl)phenylazo]-pyridoxal-5-phosphate] | 2450 | 
Cc1nc(N=Nc2cc(C(=O)O)cc(C(=O)O)c2)c(COP(=O)(O)O)c(C=O)c1O [Example 22, 6-(3,5-Dicarboxyphenylazo)-pyridoxal-5-phosphate] |  | IC50 [1, 5]: 430 nM; CCIC50 ([3]; human, 6 days): >100 µM
Cc1cc(NS(=O)(=O)c2ccc(N=Nc3nc(C)c(O)c(C=O)c3COP(=O)(O)O)cc2)nc(C)n1 [Example 23] | 2750 | 
CNS(=O)(=O)c1cccc(N=Nc2nc(C)c(O)c(C=O)c2COP(=O)(O)O)c1 [Example 26, 6-[3-(Methylsulfamoyl)phenylazo]-pyridoxal-5-phosphate] | 3700 | 
Cc1nc(N=Nc2ccc(S(=O)(=O)Nc3ccon3)cc2)c(COP(=O)(O)O)c(C=O)c1O [Example 32, 6-[4-(3-Isoazolylsulfamoyl)phenylazo]-pyridoxal-5-phosphate] | 3000 | EC50 [2, 6]: 50000 nM
Cc1nc(N=Nc2ccccc2[N+](=O)[O-])c(COP(=O)(O)O)c(C=O)c1O [Example 33, 6-(2-Nitrophenylazo)-pyridoxal-5-phosphate] | 5250 | EC50 [2, 6]: 33000 nM
Cc1nc(N=Nc2cccc(Cl)c2)c(COP(=O)(O)O)c(C=O)c1O [Example 34, 6-(3-Chlorophenylazo)-pyridoxal-5-phosphate] | 2600 | EC50 [2, 6]: 45000 nM
Cc1nc(N=Nc2cccc(S(N)(=O)=O)c2)c(COP(=O)(O)O)c(C=O)c1O [Example 35, 6-(3-Sulfamoylphenylazo)-pyridoxal-5-phosphate] | 12800 | 
Cc1nc(N=Nc2cccc(C(=O)NC3=NCCCN3)c2)c(COP(=O)(O)O)c(C=O)c1O [Example 36, 6-[3-(2-(1,4,5,6-Tetrahydropyrimidyl)carbamoyl)phenylazo]-pyridoxal-5-phosphate] | 6200 | 
Cc1nc(N=Nc2ccc(C#N)cc2)c(COP(=O)(O)O)c(C=O)c1O [Example 42, 6-(4-Cyanophenylazo)-pyridoxal-5-phosphate] |  | IC50 [1, 5]: 11300 nM; CCIC50 ([3]; human, 6 days): >100 µM
Cc1nc(N=Nc2ccc(C(N)=O)cc2)c(COP(=O)(O)O)c(C=O)c1O [Example 43, 6-(4-Carbamoylphenylazo)-pyridoxal-5-phosphate] | 8700 | 
Cc1nc(N=Nc2ccc(S(=O)(=O)Nc3ccccc3F)cc2)c(COP(=O)(O)O)c(C=O)c1O [Example 44, 6-[4-(2-Fluorophenylsulfamoyl)phenylazo]pyridoxal-5-phosphate] | 7700 | 
Cc1nc(N=Nc2ccc(S(=O)(=O)Nc3cccc(F)c3)cc2)c(COP(=O)(O)O)c(C=O)c1O [Example 45, 6-[4-(3-Fluorophenylsulfamoyl)phenylazo]-pyridoxal-5-phosphate] | 10500 | 
Cc1nc(N=Nc2ccc(S(=O)(=O)Nc3ccc(F)cc3)cc2)c(COP(=O)(O)O)c(C=O)c1O [Example 46, 6-[4-(4-Fluorophenylsulfamoyl)phenylazo]-pyridoxal-5-phosphate] |  | IC50 [1, 5]: 1500 nM; CCIC50 ([3]; human, 6 days): 32 µM
Cc1nc(N=Nc2ccc(S(=O)(=O)Nc3ncccn3)cc2)c(COP(=O)(O)O)c(C=NO)c1O [Example 53, 6-[4-(2-Pyrimidylsulfamoyl)phenylazo]-pyridoxal-5-phosphate Oxime] | 2000 | EC50 [2, 6]: 15000 nM
